Source: publication PMC3856698 (Biochemistry, 2013)

Columns and labels:
VHZ (LDP3) = biological target: T1, VHZ (LDP3) (Homo sapiens, UniProt Q9BVJ7); experiment: inhibition of pNPP hydrolysis, competitive model fit; format: biochemical
T1 sequence (Q9BVJ7 1-150): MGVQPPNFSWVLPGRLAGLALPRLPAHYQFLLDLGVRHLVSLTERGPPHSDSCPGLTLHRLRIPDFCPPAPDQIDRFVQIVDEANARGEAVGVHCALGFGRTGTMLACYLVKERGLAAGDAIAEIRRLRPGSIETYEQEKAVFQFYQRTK

VHR [1] = biological target: T2, VHR (Homo sapiens, UniProt P51452); experiment: pre-steady-state burst kinetics, stopped flow at […] nm; format: biochemical; details: read-out: KS
T2 sequence (P51452 whole entry): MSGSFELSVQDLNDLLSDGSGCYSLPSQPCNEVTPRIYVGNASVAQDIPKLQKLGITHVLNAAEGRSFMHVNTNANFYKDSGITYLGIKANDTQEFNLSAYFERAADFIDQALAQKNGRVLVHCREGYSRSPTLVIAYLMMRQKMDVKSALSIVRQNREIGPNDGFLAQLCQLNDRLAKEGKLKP

SsoPTP = biological target: T3, SsoPTP (Saccharolobus solfataricus, UniProt Q97VZ7); experiment: biochemical
T3 sequence (Q97VZ7 1-161): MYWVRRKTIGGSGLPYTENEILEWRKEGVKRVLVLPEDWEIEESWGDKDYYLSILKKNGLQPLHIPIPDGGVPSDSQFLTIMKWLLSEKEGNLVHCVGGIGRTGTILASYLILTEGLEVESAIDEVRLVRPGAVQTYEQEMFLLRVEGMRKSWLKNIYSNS

VHR [2] = biological target: T2, VHR; experiment: biochemical
PTP1B = PTP1B (Homo sapiens, UniProt P18031); experiment: biochemical
Sequence of PTP1B (P18031 1-321 limits assumed): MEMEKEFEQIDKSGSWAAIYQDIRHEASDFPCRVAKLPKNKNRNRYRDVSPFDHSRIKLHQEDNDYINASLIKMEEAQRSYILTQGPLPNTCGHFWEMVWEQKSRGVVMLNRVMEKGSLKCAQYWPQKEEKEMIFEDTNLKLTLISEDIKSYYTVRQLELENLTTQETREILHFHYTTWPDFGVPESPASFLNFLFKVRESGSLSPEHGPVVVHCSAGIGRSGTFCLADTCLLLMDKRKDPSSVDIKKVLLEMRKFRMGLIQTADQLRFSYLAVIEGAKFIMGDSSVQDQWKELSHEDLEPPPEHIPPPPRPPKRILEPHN

Compound `NC(CO)(CO)CO` [Tris] has a Ki (VHZ (LDP3)) of 88 ± 9 mM.
Work on `O=C(O)CN(CCN(CC(=O)O)CC(=O)O)CC(=O)O` [EDTA] yielded a Ki (VHZ (LDP3)) of 22 ± 2 mM.
For `O=[N+]([O-])c1ccc(OP(=O)(O)O)cc1` [pNPP], the Kd (VHR [1]) was 11.8 mM.
In the case of `O=S(=O)(O)CCN1CCN(CCO)CC1` [HEPES], the Ki (VHZ (LDP3)) is reported as 26 ± 3 mM.
For `O=P(O)(O)O` [Inorganic phosphate], the Ki (VHZ (LDP3)) was 0.67 ± 0.05 mM, the Ki (YopH) was 4.4 ± 0.2 mM and the Ki (SsoPTP) was 0.54 ± 0.42 mM. The Ki (VHR [2]) was 0.7 ± 0.3 mM and the Ki (PTP1B) was 3.7 ± 0.1 mM.
Work on `O=S(=O)(O)O` [Sulfate] yielded a Ki (VHZ (LDP3)) of 4.6 ± 0.3 mM.
Compound `[O]=[V]([OH])([OH])[OH]` [Vanadate] has a Ki (VHZ (LDP3)) of 0.0027 ± 0.0003 mM.
